We go through one molecule from patent publication US20250368633A1, “AZEPINE FUSED RING COMPOUND AS RIPK1 INHIBITOR AND USE THEREOF” (ARTIVILA BIOPHARMA, priority 2022, published 2025).

For orientation: EC50 means the concentration that produces a half-maximal response. Usually IC50 stands for the concentration that gives 50% inhibition.

The subject of test [1] is U937 cells. The test is described as follows: Inhibition rate of compound (1 μM) on necroptosis of U937 cells (TSZ-induced, CellTiter-Glo). The test is classed as cell-based. Conditions: TSZ (hTNF-α, SM-164, Z-VAD-FMK) 20 hours. An outline of the steps: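 Percent inhibition comes from ATP luminescence (CellTiter-Glo), referenced to wells without TSZ and wells with TSZ alone. The compound was added to U937 cells 15 min ahead of a TNF-α/SM-164/Z-VAD-FMK mix, followed by 20 h culture at 37° C, 5% CO2.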

The subject of test [2] is U937 cells. The test is described as follows: EC50 of necroptosis inhibition in U937 cells (TSZ-induced, CellTiter-Glo). The settings on record: Homo sapiens, U-937; TSZ (hTNF-α, SM-164, Z-VAD-FMK) 20 hours; 10 concentration points; read-out: EC50 intervals of necroptosis inhibition in U937 cells. The test is classed as cell-based. The procedure, abridged:
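Luminescent ATP readout (CellTiter-Glo) after 20 h gave viability of TSZ-challenged U937 cells; compounds were added 15 min ahead of TNF-α/SM-164/Z-VAD-FMK. EC50 derived by variable-slope nonlinear regression of inhibition relative to no-TSZ and TSZ-alone controls.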

For test [3], the target named is T1, RIPK1 kinase (Homo sapiens, UniProt Q13546).
T1 construct: purchased Promega VA7593
T1 sequence (Q13546 1-671): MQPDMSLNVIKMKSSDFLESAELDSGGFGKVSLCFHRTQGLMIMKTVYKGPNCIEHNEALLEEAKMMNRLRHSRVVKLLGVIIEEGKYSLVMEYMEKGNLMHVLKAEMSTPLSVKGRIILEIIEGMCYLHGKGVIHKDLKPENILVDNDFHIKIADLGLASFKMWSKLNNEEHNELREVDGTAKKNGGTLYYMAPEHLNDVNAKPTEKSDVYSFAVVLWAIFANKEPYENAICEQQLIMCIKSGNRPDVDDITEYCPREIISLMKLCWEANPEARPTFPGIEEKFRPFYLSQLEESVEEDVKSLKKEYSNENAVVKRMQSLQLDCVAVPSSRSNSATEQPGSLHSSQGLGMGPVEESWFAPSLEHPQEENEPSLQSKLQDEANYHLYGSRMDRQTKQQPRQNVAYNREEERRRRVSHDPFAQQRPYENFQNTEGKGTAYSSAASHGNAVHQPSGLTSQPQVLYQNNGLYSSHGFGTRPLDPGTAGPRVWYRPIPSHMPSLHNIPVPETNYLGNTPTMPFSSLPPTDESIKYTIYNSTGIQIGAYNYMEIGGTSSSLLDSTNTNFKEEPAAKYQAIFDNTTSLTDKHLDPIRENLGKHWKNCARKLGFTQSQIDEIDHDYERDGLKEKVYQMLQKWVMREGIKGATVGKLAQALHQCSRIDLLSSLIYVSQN
The test is described as follows: In vitro RIPK1 kinase activity IC50 assay (ADP-Glo). The test is classed as biochemical. The settings on record: ATP 10 μM; MBP substrate 100 μg/mL; 8 concentration points; read-out: IC50 range of compounds for RIPK1 kinase activity. How it is done:
RIPK1 kinase activity was assayed using the ADP-Glo assay and RIPK1 kinase reaction system (Promega, catalog number: VA7593). The RIPK1 kinase activity assay was performed according to the Promega kit manual.
The experimental method was briefly described as below. The concentration of RIPK1 kinase in the RIPK1 kinase reaction system was determined by kinase titration and S/B10. The compound was diluted with 1× kinase buffer D (1% DMSO), 1 μL of 1 mM compound DMSO stock solution was added to 19 μL 1× kinase buffer D, and the compound was serially diluted with 1× kinase buffer D at a ratio of 1:5, for a total of 8 concentration points, and a control with the same DMSO volume was set. RIPK1 kinase was diluted with 1× kinase buffer D. 2.5×ATP/substrate was diluted with 1× kinase buffer D. The final concentration of ATP in the kinase reaction system was 10 μM. The final concentration of MBP substrate was 100 μg/mL. 1 μL of diluted compound and 2 μL of diluted RIPK1 kinase were mixed, incubated at room temperature for 15 minutes, 2 μL of 2.5×ATP/substrate was added, mixed, and incubated at room temperature for 1 hour. 5 μL ADP-Glo reagent was added to each well and incubated at room temperature for 1 hour. 10 μL ADP detection reagent was added to each well and incubated at room temperature for another 0.5-1 hour. The chemiluminescent signal was read with a microplate reader and the kinase activity inhibition rate was calculated. IC50 was obtained by fitting the nonlinear regression curve log [inhibitor] vs. response-variable slope (four parameters) in GraphPad Prism.

Molecules are shown by their SMILES.

As for `C[C@@H](NC(=O)C(=O)N[C@H]1COc2ccc(C#CCCO)cc2N(C)C1=O)c1ccccc1` [Example 125, N^1-((S)-7-(4-hydroxybut-1-yn-1-yl)-5-methyl-4-oxo-2,3,4,5-tetrahydrobenzo[b][1,4]oxazepin-3-yl)-N^2-((R)-1-phenylethyl)oxalamide], the “Inhibition rate range of compounds (1 μM) on U937 cell necroptosis” value in test [1] was “A (A: ≥90%)”. The concentration giving a half-maximal response (EC50) in test [2] was below 100 nM. Moreover, the IC50 in test [3] was below 100 nM.
